Laboratory results from patent US3944498A, “Germicidal detergent containing a thienyliodonium salt” (The Dow Chemical Company, priority 1973, dated 1976).

Experiments:
[1] = test system: A. aerogenes; experiment: Agar plate kill test with Ivory soap, A. aerogenes; assay type: cell-based; settings: Ivory soap; for killing at 5 ppm: 5 p.p.m.
Experimental: (§1) Phenyl-2-thienyliodonium chloride, 2,2'-bisthienyliodonium chloride, and, for comparative purposes, diphenyliodonium chloride are individually dispersed in Ivory soap to provide concentrates containing 1 part by weight of iodonium salt to 50 parts by weight of soap. The soap concentrates are serially dispersed and serially diluted with liquid nutrient agar at 42°C. to prepare culture media containing various concentrations of one of the iodonium salts. The culture media are uniformly inoculated with S. aureus and plated in petri dishes. The inoculation is carried out from broth cultures of the named organism containing about 5×10^8 organisms per milliliter in the proportion of one-tenth milliliter of bacterial culture per 20 milliliters of cultur medium containing each test compound. In a check operation, nutrient agar containing the same amount of Ivory soap is similarly inoculated with the same organism. After two days' incubation at 37°C., the plates are examined for microbial growth.
The procedure described above is repeated with varying concentrations of 4-chlorophenyl-2-thienyliodonium chloride, 3,4-dichlorophenyl-2-thienyliodonium chloride, and for comparative purposes bis(4-chlorophenyl)iodonium chloride, phenyl-4-chlorophenyliodonium chloride and bis(2,4-dichlorophenyl)iodoniumchloride in a series of tests wherein the culture media are inoculated individually with the organism A. aerogenes.
The procedure described above is once again repeated with each of 2,2'-bisthienyliodonium chloride, phenyl-2-thienyliodonium chloride, 4-bromophenyl-2-thienyliodonium chloride, bis(4-bromophenyl)iodonium chloride and bis(4-bromophenyl)iodonium bromide in a series of tests wherein the culture media are inoculated individually with the organism A. aerogenes.

[2] = test system: S. typhosa; experiment: Agar plate kill test with Ivory soap, S. typhosa; assay type: cell-based
Experimental: as §1
The procedure described above is again repeated in a series of tests wherein the culture media are inoculated individually with the organism S. typhosa and wherein the culture media contain varying concentrations of one of the iodonium salts, as set forth in following Table II.

[3] = test system: S. aureus; experiment: Agar dilution MIC in presence of Ivory soap, S. aureus; assay type: cell-based; settings: Staphylococcus aureus; read-out: Minimum growth inhibitory concentration, S. aureus
Experimental: (§2) The growth-inhibitory activity of the below-indicated compounds against some microorganisms most relevant to the human skin was determined by standard agar dilution techniques to provide the data given in following Table 1.
(§3) In Table 1, the first column gives the chemical structures of the test compounds, while the additional columns give the names of the test organisms and the minimum inhibitory concentration in parts per million (p.p.m.) of the compounds listed for 100% growth inhibition against the particular microorganisms indicated. […] For each p.p.m. of test compound, 50 p.p.m. of Ivory soap was also present in the culture medium for part A of Table 1, while in part B of Table 1, the culture medium was free of any additive other than the test compound. The data for compounds 13 through 16 of part B of Table 1 were taken from Cannon U.S. Pat. No. 3,207,660 while those for compounds 17 and 18 were taken from trade literature.

[4] = test system: P. aeruginosa; experiment: Agar dilution MIC in presence of Ivory soap, P. aeruginosa; assay type: cell-based; settings: Pseudomonas aeruginosa; read-out: Minimum growth inhibitory concentration, P. aeruginosa
Experimental: as §2, §3

[5] = test system: S. typhosa; experiment: Agar dilution MIC in presence of Ivory soap, S. typhosa; assay type: cell-based; settings: read-out: Minimum growth inhibitory concentration, S. typhosa
Experimental: as §2, §3

[6] = Range-finding median lethal dose (LD50) in mice; settings: mouse, in vivo; single oral dose in corn oil, 14-day observation
Experimental: The range-finding oral median lethal dose (LD50) for iodonium and other antimicrobial compounds, including diphenyl- and thienyliodonium salts as well as several proprietary products was determined in mice. Compounds 1 through 11 of following Table 2 were fed to five groups of two mice each, the test compound being administered in suspension in corn oil as a single oral dose and the mortality experience of the mice was observed over a 14-day period. Data for compounds 12 through 15 were taken from U.S. Pat. No. 3,207,660, and for compounds 16 through 18 were taken from trade literature.

[7] = test system: S. aureus; settings: absence of soap; 13-16 from Cannon U.S. Pat. No. 3,207,660, 17-18 from trade literature; cited from earlier work
[8] = test system: P. aeruginosa; settings: absence of soap; 13-16 from Cannon U.S. Pat. No. 3,207,660, 17-18 from trade literature; cited from earlier work
[9] = test system: mice; settings: cited from earlier work; for Oral LD50 (mice): 12-15 from U.S. Pat. No. 3,207,660, 17, 18 from trade literature
[10] = test system: S. aureus; experiment: Agar plate kill test with Ivory soap, S. aureus; assay type: cell-based; settings: 2 days, 37°C
Experimental: as §1

[11] = test system: S. aureus; experiment: Nutrient agar growth test, S. aureus (Example 3); assay type: cell-based; settings: 0.001 percent by weight, 2 days, 35°C
Excerpt: (§4) The 4-chlorophenyl-2-thienyliodonium chloride, trifluoroacetate and trichloroacetate salts are dispersed in melted nutrient agar to produce culture media containing 0.001 percent by weight of one of the salt compounds. Such melted media are then poured into petri dishes and the solidified surface in each dish inoculated with a 24-hour broth culture, one of the organisms S. aureus and S. typhosa. In a check operation, petri dishes containing unmodified nutrient agar are each individually inoculated in the same manner with the named organisms. After two days' incubation at 35°C. the agar surface in each dish is examined for microbial growth. […] At the time of these observations the check dishes are found to support a heavy growth of the two named organisms.

[12] = test system: S. typhosa; experiment: Nutrient agar growth test, S. typhosa (Example 3); assay type: cell-based; settings: 0.001 percent by weight, 2 days, 35°C
Excerpt: as §4

[13] = Klebsiella aerogenes, 48 h, 10 p.p.m., read-out: Percent Kill of A. aerogenes
[14] = 48 h, read-out: Percent Kill of S. Typhosa
[15] = Klebsiella aerogenes, 48 h, read-out: Percent Kill of A. aerogenes

Brc1ccc([I+]c2ccc(Br)cc2)cc1.[Br-] [bis(4-bromophenyl)iodonium bromide, reference compound]
Percent Kill of A. aerogenes ([1]; 10 p.p.m.): 0% | Percent Kill of S. Typhosa ([2]; 10 p.p.m., Ivory soap): 0%

Clc1ccc([I+]c2ccc(Cl)cc2)cc1 [Compound 5 (Table 1)]
MIC [3]: 10 µg/mL | MIC [4]: > 100 µg/mL | MIC [5]: 10 µg/mL

c1ccc([I+]c2ccccc2)cc1 [Compound 1 (Table 2)]
LD50 [6]: 56.2 mg/kg

c1csc([I+]c2cccs2)c1 [Compound 4 (Table 2)]
LD50 [6]: 500 mg/kg

Clc1ccc([I+]c2ccc(Cl)cc2Cl)c(Cl)c1 [bis(2,4-dichlorophenyl)iodonium chloride, bis(2,4-dichlorophenyl)iodoniumchloride, reference compound]
killing at 10 ppm [1, 13]: 0% | killing at 10 ppm [2, 14]: 0%

c1ccc([I+]c2cccs2)cc1 [Compound 2 (Table 1)]
MIC [3]: 5 µg/mL | MIC [4]: 5 µg/mL | MIC [5]: 5 µg/mL

Cc1ccc([I+]c2cccs2)cc1 [Compound 7 (Table 2)]
LD50 [6]: 750 mg/kg

Clc1ccc2c(c1)[I+]c1cc(Cl)ccc1-2 [Compound 16 (Table 1)]
Minimum growth inhibitory concentration, S. aureus [7]: 1.56 ppm | Minimum growth inhibitory concentration, P. aeruginosa [8]: 6.25 ppm

Clc1ccc2c(c1)[I+]c1cc(Cl)ccc1-2 [Compound 15 (Table 2)]
Oral LD50 (mice) [9]: 21.32 ± 3.2 mg/kg

c1ccc2c(c1)[I+]c1ccccc1-2 [Compound 14 (Table 1)]
Minimum growth inhibitory concentration, S. aureus [7]: 5 ppm | Minimum growth inhibitory concentration, P. aeruginosa [8]: 5 ppm

[Cl-].c1ccc([I+]c2ccccc2)cc1 [diphenyliodonium chloride, reference compound]
growth of S. aureus ([10]; 500 p.p.m.): heavy uniform growth | killing at 500 ppm ([2]; 48 h, 500 p.p.m., Ivory soap, read-out: Percent Kill of S. Typhosa): 0%

CCOc1ccc([I+]c2ccccc2)cc1 [Compound 9 (Table 1)]
MIC [3]: > 500 µg/mL | MIC [4]: > 500 µg/mL | MIC [5]: > 500 µg/mL

c1ccc2c(c1)[I+]c1ccccc1-2 [Compound 13 (Table 2)]
Oral LD50 (mice) [9]: 8.75 ± 0.57 mg/kg

c1ccc(-c2ccc([I+]c3cccs3)cc2)cc1 [Compound 11 (Table 2)]
LD50 [6]: 4000 mg/kg

CCOc1ccc([I+]c2cccs2)cc1 [Compound 10 (Table 1)]
MIC [3]: 5 µg/mL | MIC [4]: 50 µg/mL | MIC [5]: 5 µg/mL

C[CH2][Hg][S]c1ccccc1C(=O)[O-].[Na+] [Merthiolate]
LD50 (mice), subcutaneous ([9]; S.C., trade literature): 66 mg/kg

Clc1ccc([I+]c2ccccc2)cc1.[Cl-] [phenyl-4-chlorophenyliodonium chloride, reference compound]
killing at 10 ppm [1, 13]: 0% | killing at 10 ppm [2, 14]: 0% | LD50 [6]: 68 mg/kg

c1ccc([I+]c2ccccc2)cc1 [Compound 1 (Table 1)]
MIC [3]: > 500 µg/mL | MIC [4]: > 500 µg/mL | MIC [5]: > 500 µg/mL

Clc1cccc2c1-c1c(Cl)cccc1[I+]2 [Compound 14 (Table 2)]
Oral LD50 (mice) [9]: 8 to 10 mg/kg

c1ccc([I+]c2cccs2)cc1 [phenyl-2-thienyliodonium chloride, Phenyl-2-thienyliodonium chloride]
killing at […] ([10]; Staphylococcus aureus, 48 h, 2.5 p.p.m., read-out: percent kill of S. aureus): 100% | killing at […] ([1]; Klebsiella aerogenes, 48 h, 2.5 p.p.m., read-out: Percent Kill of A. aerogenes): 100% | killing at […] [2, 14]: 100%

Clc1ccc([I+]c2cccs2)cc1Cl [Compound 6 (Table 2)]
LD50 [6]: 2000 mg/kg

CCc1ccc([I+]c2cccs2)cc1 [Compound 8 (Table 2)]
LD50 [6]: 1500 mg/kg

Brc1ccc([I+]c2ccc(Br)cc2)cc1 [bis(4-bromophenyl)iodonium chloride, reference compound]
killing at 10 ppm [1, 13]: 0% | killing at 10 ppm [2, 14]: 0%

Clc1ccc([I+]c2cccs2)cc1Cl [3,4-dichlorophenyl-2-thienyliodonium chloride]
killing at 1 ppm ([1]; Klebsiella aerogenes, 48 h, 1 p.p.m., read-out: Percent Kill of A. aerogenes): 100% | killing at 1 ppm [2, 14]: 100%

Clc1cccc2c1-c1ccccc1[I+]2 [Compound 15 (Table 1)]
Minimum growth inhibitory concentration, S. aureus [7]: 1.56 ppm | Minimum growth inhibitory concentration, P. aeruginosa [8]: 3.13 ppm

Clc1ccc([I+]c2ccc(Cl)c(Cl)c2)cc1Cl [Compound 7 (Table 1)]
MIC [3]: 5 µg/mL | MIC [4]: > 500 µg/mL | MIC [5]: > 10 µg/mL

Clc1ccc([I+]c2cccs2)cc1.O=C([O-])C(F)(F)F [4-Chlorophenyl-2-thienyliodonium trifluoroacetate]
microbial growth on agar surface [11]: free of microbial growth | microbial growth on agar surface [12]: free of microbial growth

Clc1ccc([I+]c2cccs2)cc1 [Compound 5 (Table 2)]
LD50 [6]: > 4000 mg/kg

c1ccc(Oc2ccc([I+]c3cccs3)cc2)cc1 [Compound 10 (Table 2)]
LD50 [6]: 3000 mg/kg

c1ccc2c(c1)[I+]c1ccccc1-2 [Compound 13 (Table 1)]
Minimum growth inhibitory concentration, S. aureus [7]: 3.13 ppm | Minimum growth inhibitory concentration, P. aeruginosa [8]: 3.13 ppm

c1ccc2c(c1)[I+]c1ccccc1-2 [Compound 12 (Table 2)]
Oral LD50 (mice) [9]: 12.5 mg/kg

Clc1ccc([I+]c2ccc(Cl)cc2)cc1 [bis(4-chlorophenyl)iodonium chloride, reference compound]
killing at 100 ppm ([1]; Klebsiella aerogenes, 48 h, 100 p.p.m., read-out: Percent Kill of A. aerogenes): 0%

c1ccc([I+]c2cccs2)cc1 [Compound 3 (Table 2)]
LD50 [6]: 2000 mg/kg

Cc1ccc(C)c([I+]c2cccs2)c1 [Compound 9 (Table 2)]
LD50 [6]: 3000 mg/kg

Clc1ccc([I+]c2ccccc2)cc1 [Compound 4 (Table 1)]
MIC [3]: 10 µg/mL | MIC [4]: > 100 µg/mL | MIC [5]: > 10 µg/mL

Brc1ccc([I+]c2cccs2)cc1 [4-bromophenyl-2-thienyliodonium chloride]
killing at 5 ppm [1, 15]: 100% | killing at 5 ppm [2, 14]: 100%

Oc1c(Cl)cc(Cl)c(Cl)c1Cc1c(O)c(Cl)cc(Cl)c1Cl [hexachlorophene]
Oral LD50 (mice) [9]: 161 mg/kg

Clc1ccc([I+]c2cccs2)cc1Cl [Compound 8 (Table 1)]
MIC [3]: 1 µg/mL | MIC [4]: 1 µg/mL | MIC [5]: 1 µg/mL

c1csc([I+]c2cccs2)c1 [Compound 3 (Table 1)]
MIC [3]: 0.5 µg/mL | MIC [4]: 5 µg/mL | MIC [5]: 0.5 µg/mL

Clc1ccc([I+]c2cccs2)cc1 [4-chlorophenyl-2-thienyliodonium trichloroacetate]
microbial growth on agar surface [11]: free of microbial growth | microbial growth on agar surface [12]: free of microbial growth

Clc1ccc([I+]c2cccs2)cc1 [Compound 6 (Table 1)]
MIC [3]: 1 µg/mL | MIC [4]: 1 µg/mL | MIC [5]: 1 µg/mL

c1csc([I+]c2cccs2)c1 [2,2'-bisthienyliodonium chloride]
killing at 5 ppm ([10]; Staphylococcus aureus, 48 h, 5 p.p.m., read-out: percent kill of S. aureus): 100% | killing at 5 ppm [1, 15]: 100% | killing at 5 ppm [2, 14]: 100%
